Test results taken from the NIST ThermoML archive (doi:10.1021/je4004405).
± gives the expanded uncertainty stated by the source.

Assays:
[1] = 298.15 K, 101.33 kPa, Liquid
[2] = wn = mass fraction of the nth substance listed; settings: 101 kPa, Liquid; for viscosity: Capillary tube (Ostwald / Ubbelohde) method; for mass density: Pycnometric method

CCCCOCCO [2-butoxyethan-1-ol]
viscosity ([1]; Capillary tube (Ostwald / Ubbelohde) method): 2.782 ± 0.022 mPa·s | mass density ([1]; Pycnometric method): 896.16 ± 0.55 kg/m3

CCCCOCCO [2-butoxyethan-1-ol] + O
viscosity ([2]; 298.15 K, w1 = 0.2): 1.849 ± 0.018 mPa·s | viscosity ([2]; 298.15 K, w1 = 0.4): 2.998 ± 0.022 mPa·s | viscosity ([2]; 298.15 K, w1 = 0.6): 3.918 ± 0.026 mPa·s | viscosity ([2]; 298.15 K, w1 = 1): 2.782 ± 0.022 mPa·s | mass density ([2]; 298.15 K, w1 = 0.2): 986.46 ± 0.55 kg/m3 | mass density ([2]; 298.15 K, w1 = 0.4): 967.1 ± 0.55 kg/m3 | mass density ([2]; 298.15 K, w1 = 0.6): 948.1 ± 0.55 kg/m3 | mass density ([2]; 298.15 K, w1 = 1): 896.16 ± 0.55 kg/m3 | viscosity ([2]; 303.15 K, w1 = 0.2): 1.622 ± 0.017 mPa·s | viscosity ([2]; 303.15 K, w1 = 0.4): 2.635 ± 0.021 mPa·s | viscosity ([2]; 303.15 K, w1 = 0.6): 3.394 ± 0.024 mPa·s | viscosity ([2]; 303.15 K, w1 = 1): 2.499 ± 0.021 mPa·s | mass density ([2]; 303.15 K, w1 = 0.2): 982.92 ± 0.56 kg/m3 | mass density ([2]; 303.15 K, w1 = 0.4): 964.31 ± 0.56 kg/m3 | mass density ([2]; 303.15 K, w1 = 0.6): 944.74 ± 0.56 kg/m3 | mass density ([2]; 303.15 K, w1 = 1): 892.74 ± 0.55 kg/m3 | viscosity ([2]; 308.15 K, w1 = 0.2): 1.465 ± 0.017 mPa·s | viscosity ([2]; 308.15 K, w1 = 0.4): 2.334 ± 0.02 mPa·s | viscosity ([2]; 308.15 K, w1 = 0.6): 2.921 ± 0.022 mPa·s | viscosity ([2]; 308.15 K, w1 = 1): 2.206 ± 0.02 mPa·s | mass density ([2]; 308.15 K, w1 = 0.2): 980.38 ± 0.56 kg/m3 | mass density ([2]; 308.15 K, w1 = 0.4): 961.45 ± 0.56 kg/m3 | mass density ([2]; 308.15 K, w1 = 0.6): 941.59 ± 0.56 kg/m3 | mass density ([2]; 308.15 K, w1 = 1): 888.88 ± 0.56 kg/m3 | viscosity ([2]; 313.15 K, w1 = 0.2): 1.302 ± 0.017 mPa·s | viscosity ([2]; 313.15 K, w1 = 0.4): 2.054 ± 0.019 mPa·s | viscosity ([2]; 313.15 K, w1 = 0.6): 2.539 ± 0.021 mPa·s | viscosity ([2]; 313.15 K, w1 = 1): 1.946 ± 0.019 mPa·s | mass density ([2]; 313.15 K, w1 = 0.2): 977.64 ± 0.56 kg/m3 | mass density ([2]; 313.15 K, w1 = 0.4): 958.48 ± 0.56 kg/m3 | mass density ([2]; 313.15 K, w1 = 0.6): 937.57 ± 0.56 kg/m3 | mass density ([2]; 313.15 K, w1 = 1): 884.29 ± 0.56 kg/m3
